Several values for one entry are separate records, joined by “and”; a condition that tells them apart may be missing. Equal values may be shown once. Read-outs that look alike come from different tables or passages of the source.
Key:
TgAPP mice = experiment: Elevated plus maze, TgAPP mice; assay type: in vivo, mouse; conditions: 45 mg/kg IP, 6 wk, vs DMSO
Description: (§1) The elevated plus maze was performed using a standard set up, with two enclosed arms and two open arms. Mice were placed at the intersection of the open and closed arms and allowed to freely explore for 5 min, two times. Time spent in the open and closed arms and number of entries into the open and closed arms were recorded.

Solubility in DMSO = assay type: physicochemical
[1] = Pharmacokinetic analysis of BK40197 (brain and serum, LC-MS/MS); assay type: in vivo, C57BL/6 mice; conditions: for Kp / Tmax / AUC / Cmax: both sexes, C57BL/6, mouse; for Kp: brain/serum, intraperitoneal, read-out: brain to serum ratio
Description: The PK profile of BK40197 was investigated after single IP doses of 20 and 45 mg/kg BK40197 to male and female 5–6 mo old C57BL/6 mice compared with DMSO. A solution at 5 ng/ml isotope labelled reference compounds d8-BK40197 was prepared. The solvent used for internal standard (ISTD) dilution is (200 ml/50 ml) acetonitrile/ethyl acetate (ACN/EtOAc). Brain tissue was homogenized in ice water bath and was prepared using weight accurately on analytical balance with 4 decimals. A volume water (MilliQ) was added by adjustable 100–1,000 μl to a concentration at 100 mg brain tissue/ml water. Brain homogenate (25 μl) and plasma sample (25 μl) that was thawed to RT and gently mixed were pipetted to eppendorf tube with lid and 75 μl ISTD added, mixed on vortex and centrifuged for 5 min at […]. A volume of 25 μl milli-Q water and 75 μl brain or plasma samples were added into a 200 μl PE vial and mixed on vortex and 10 μl and injected on LC-MS/MS. All animal work was approved by GUACUC.

mice = experiment: Elevated plus maze, source data sheets EPM (mouse line not given); assay type: in vivo
Description: as §1

[2] = Totals (Trial 1 + Trial 2), individual animals, listed as 197
[3] = Trial 1, individual animals, listed as 197
[4] = Trial 2, individual animals, listed as 197
[5] = elevated plus maze, trial 1 + trial 2, one value per mouse, listed as 197
[6] = elevated plus maze, trial 1, one value per mouse, listed as 197
[7] = elevated plus maze, trial 2, one value per mouse, listed as 197

Cc1cccc(-c2cc3nccc(N4CCOCC4)c3s2)c1 [BK40197]
elevated plus maze: time in the open arms (TgAPP mice): spent significantly greater time in the open arms of the elevated plus maze | solubility in DMSO (Solubility in DMSO): insolubility | Kp ([1]; 20 mg/kg IP): 0.251 | Kp ([1]; 45 mg/kg IP): 0.201 | Tmax ([1]; brain, 20 mg/kg single IP, read-out: Brain Tmax): 2 h | Tmax ([1]; brain, 45 mg/kg single IP, read-out: Brain Tmax): 2 h | AUC ([1]; serum, 20 mg/kg single IP): 0.928 µg·h/mL | Cmax ([1]; serum, 20 mg/kg single IP): 543 ± 82.3 ng/g | Tmax ([1]; serum, 20 mg/kg single IP, read-out: Serum Tmax): 1 h | AUC ([1]; serum, 45 mg/kg single IP): 1.94 µg·h/mL | Cmax ([1]; serum, 45 mg/kg single IP): 1100 ± 165 ng/g | Tmax ([1]; serum, 45 mg/kg single IP, read-out: Serum Tmax): 1 h | brain penetrance ([1]; single IP dose, C57BL/6 mice): brain penetrant | Closed Entries (mice; [2]): 13 and 8 and 4 and 2 and 14 and 3 and 9 | Open Entries (mice; [2]): 8 and 9 and 7 and 13 and 15 and 5 and 10 | Time Closed (mice; Totals (Trial 1 + Trial 2), individual animals, listed as 197, in s): 299 and 472 and 180 and 74 and 440 and 274 and 198 and 409 | Time Open (mice; Totals (Trial 1 + Trial 2), individual animals, listed as 197, in s (unit assumed)): 301 and 128 and 420 and 526 and 160 and 326 and 402 and 191 | Closed Entries AVG (mice; Totals, group average): 8.25 | Open Entries AVG (mice; Totals, group average): 9.5 | Time Closed AVG (mice; Totals, group average, in s): 293.25 | Time Open AVG (mice; Totals, group average, in s): 306.75 | Closed Entries AVG (mice; Trial 1, group average): 3.75 | Open Entries AVG (mice; Trial 1, group average): 6.5 | Time Closed AVG (mice; Trial 1, group average, in s): 86.375 | Time Open AVG (mice; Trial 1, group average, in s): 213.625 | Closed Entries (mice; [3]): 3 and 4 and 1 and 8 and 0 and 7 | Open Entries (mice; [3]): 5 and 6 and 8 and 4 and 11 and 1 and 9 | Time Closed (mice; Trial 1, individual animals, listed as 197, in s): 60 and 208 and 48 and 55 and 163 and 41 and 0 and 116 | Time Open (mice; Trial 1, individual animals, listed as 197, in s (unit assumed)): 240 and 92 and 252 and 245 and 137 and 259 and 300 and 184 | Closed Entries AVG (mice; Trial 2, group average): 4.5 | Open Entries AVG (mice; Trial 2, group average): 3 | Time Closed AVG (mice; Trial 2, group average, in s): 206.875 | Time Open AVG (mice; Trial 2, group average, in s): 93.125 | Closed Entries (mice; [4]): 10 and 4 and 1 and 5 and 3 and 2 | Open Entries (mice; [4]): 3 and 1 and 2 and 7 and 4 | Time Closed (mice; Trial 2, individual animals, listed as 197, in s): 239 and 264 and 132 and 19 and 277 and 233 and 198 and 293 | Time Open (mice; Trial 2, individual animals, listed as 197, in s (unit assumed)): 61 and 36 and 168 and 281 and 23 and 67 and 102 and 7 | Time/Entry AVG (mice; elevated plus maze, group average): 8.7983 | Open Entries AVG (mice; elevated plus maze, group average of totals): 14.5714 | Time Open AVG (mice; elevated plus maze, group average of totals, in s): 96.8 | Time/Entry (mice; elevated plus maze, total time open / total open entries, one value per mouse, listed as 197): 3.925 and 5.671 and 12.2 and 2.561 and 11.6778 and 13.5375 and 12.015 | Open Entries (mice; elevated plus maze, totals listed by treatment group, one value per mouse, listed as 197): 12 and 7 and 2 and 44 and 9 and 8 and 20 | Totals Closed Entries (mice; [5]): 22 and 15 and 11 and 38 and 10 and 3 and 12 | Totals Open Entries (mice; [5]): 9 and 8 and 20 and 12 and 7 and 2 and 44 | Totals Time Open (mice; elevated plus maze, trial 1 + trial 2, one value per mouse, listed as 197, in s): 105.1 and 108.3 and 240.3 and 47.1 and 39.7 and 24.4 and 112.7 | Totals Time Closed (mice; elevated plus maze, trial 1 + trial 2, one value per mouse, listed as 197, in s (unit assumed)): 346 and 410.7 and 291.7 and 404.6 and 493.6 and 547.6 and 346.3 | Trial 1 Closed Entries (mice; [6]): 17 and 7 and 6 and 31 and 5 and 2 and 8 | Trial 1 Open Entries (mice; [6]): 6 and 8 and 12 and 10 and 1 and 15 | Trial 1 Time Closed (mice; elevated plus maze, trial 1, one value per mouse, listed as 197, in s (unit assumed)): 123.7 and 123.9 and 82.1 and 166.6 and 229.4 and 269.8 and 138 | Trial 2 Closed Entries (mice; [7]): 5 and 8 and 7 and 1 and 4 | Trial 2 Open Entries (mice; [7]): 3 and 0 and 8 and 2 and 1 and 29 | Trial 2 Time Open (mice; elevated plus maze, trial 2, one value per mouse, listed as 197, in s): 39.9 and 0 and 56.7 and 15.1 and 0.5 and 14.1 and 49 | Trial 2 Time Closed (mice; elevated plus maze, trial 2, one value per mouse, listed as 197, in s (unit assumed)): 222.3 and 286.8 and 209.6 and 238 and 264.2 and 277.8 and 208.3 | Time/Entry AVG (mice; group average): 38.3997

Source: PMC11249953, “c-KIT inhibitors reduce pathology and improve behavior in the Tg(SwDI) model of Alzheimer’s disease” (Life Science Alliance, 2024)
